Experimental data taken from US20140050778A1, “NUCLEIC ACID BINDING COMPOUNDS, METHODS OF MAKING, AND USE THEREOF” (UNIVERSITY OF ROCHESTER, priority 2010, published 2014).
“Also recorded” adds a separate entry of the source.

Experiments:
[1] = test system: human fibroblasts / mouse myoblasts; test: MTT toxicity assay, comparison drugs (FIGS. 13A-B); format: cell-based
Description: (§1) For toxicity studies, mouse myoblasts or human fibroblasts were plated in a 96-well tissue culture plate in DMEM (10% fetal bovine serum, 100 units/ml penicillin, […]) and allowed to grow to approximately 80% confluence at 37° C. under CO2. Varying compound concentrations (up to 1 mM) were incubated with cells (48 hours, 37° C.). Media was then removed, and 3-(4,5-dimethylthiazol-2-yl)-2,5-diphenyltetrazolium bromide (“MTT”) in media was added to each well and incubated at 37° C. for 4 h. After removal of the MTT media, isopropanol (100 pp was added, and absorbance was measured at 600 nm on a Modulus microplate reader (Turner Biosystems).

[2] = target: (CUG)10 RNA (SEQ ID NO: 3); test: SPR binding to immobilized biotinylated RNA; settings: SPR, (CUG)10
Description: SPR binding measurements were performed on a Biacore-X instrument (Biacore, Inc., Uppsala, Sweden) with two flow channels (FC1 and FC2). 5′-Biotinylated-RNA sequences, with a C6 linker separating the biotin label from the RNA (Integrated DNA Technologies Inc.) were immobilized on streptavidin (Rockland Immunochemicals) functionalized carboxylmethyl dextran coated sensor chips (CM5, G.E. Healthcare) using EDC/NHS (Advanced ChemTech) coupling chemistry. Filtered (0.2μ), degassed and autoclaved HBS-N buffer (0.01M Hepes, pH=7.4, 0.15 M NaCl) was employed as sample and as running buffer for all SPR experiments. A typical protocol for an experiment is as follows: A CM5 sensor chip was allowed to equilibrate to room temperature and then docked into the instrument. Following priming with running buffer, FC1 and FC2 were conditioned by manual injection of 20 μL aqueous NaOH (50 mM) at a flow rate of 30 μL/min. This was repeated 3 times followed by a wash command. Next, the carboxyl groups on the sensor chip surface in both flow cells were activated separately by injecting 60 μL of freshly prepared 1:1 mixture of EDC (0.4 M) and NHS (0.1 M) at a 5 μL/min flow rate followed by a wash. […] After washing, the surface was deactivated with 60 μL injection of ethanolamine (1M, pH=8.5) at 5 μL/min. The flow cells were primed, and the streptavidin surface in FC1 alone was blocked with 30 μL of biotin (20 μM in HBS-N) at 5 μL/min. The RNA (200 nM in running buffer, HBS-N) to be immobilized was unfolded by heating above its predicted melting temperature in a heated block for 2 min and then allowed to refold by cooling gradually to room temperature. The RNA was then immobilized in FC2 alone to response units ranging from 200-1000 RU using a 5 μL/min flow rate. Representative sensorgrams for the immobilization procedure is shown in FIGS. 2A-B. Two 20 μL aliquots of NaCl (0.5 M) were injected at a 30 μL/min flow rate to remove non-specifically bound RNA. The level of RNA immobilized was noted when the baseline was stable, usually after repeated buffer injection followed by a “prime” command. Binding measurements were performed by flowing various concentrations of the compounds to be analyzed over the immobilized RNA and recording the reference-subtracted (FC2−FC1) sensorgrams. For kinetic analysis, at least five sensorgrams corresponding to different concentrations of compound (usually ranging from 0.05-1 μM in HBS-N) were obtained using flow rates of either 60 μL/min or 30 μL/min. The experimental sensorgrams were globally fitted to a 1:1 binding equation (Biaevaluation software) to obtain association rates (ka) and dissociation rates ([…]) as well as equilibrium binding constants (KD). To measure the binding stoichiometry (n), the relations in equations (1-3) below were used: […]
where RUmax is the maximum resonance response unit at saturation, RURNA is the amount RU of RNA immobilized, n is the stoichiometry, MWcompound and MWRNA are molecular weights of compound and RNA respectively, and RUeq represents the resonance response at steady-state (equilibrium). The response units at equilibrium were subjected to Scatchard binding plots of (r/Cfree vs. r).
This technique allows the association and dissociation rates (ka and kd), equilibrium binding constants (KD), and the binding stoichiometry (n) to be measured in a label-free format (Liu and Wilson, “Quantitative Analysis of Small Molecule-nucleic Acid Interactions with a Biosensor Surface and Surface Plasmon Resonance Detection,” Methods Mol. Biol. 613:1-23 (2010), which is hereby incorporated by reference in its entirety).

mouse C2C12 myoblasts = test: Cell permeability by fluorescence microscopy; format: cell-based; settings: 12 h, 125 μM, intrinsic fluorescence
Description: For cell permeability studies, human fibroblasts or mouse myoblasts grown to 80% confluence were exposed to compounds for 12 hours in a 96 well tissue culture plate. After removal of the culture media (DMEM, with 10% FBS, 1% pen-strep (GIBCO)) the cells were washed twice with PBS to remove excess compounds. Cells were then imaged while in buffer under a fluorescence microscope (Olympus IX70) in the 96-well plate using a 460 nm emission filter.

human fibroblasts = test: MTT toxicity assay; format: cell-based; settings: single substance, concentrations up to 500 μM
Description: as §1
SPR and fluorescence titration experiments, performed using the protocol described in Examples 3 and 4 above, except using as the target a highly conserved RNA sequence responsible for regulating the production of the Gag-Pol polyprotein via a −1 ribosomal frameshift, which occurs along a “slippery sequence” in gag-pol mRNA (SEQ ID NO: 7). This “frameshift stimulatory sequence” (or “HIV-1 FSS”) consists of an upper stemloop and a lower stem, separated by a purine bulge in the most common types of HIV (FIG. 19). For the fluorescent titration experiments, the upper stemloop of SEQ ID NO: 7 was employed. Cell uptake and toxicity studies were carried out using human fibroblasts according to Example 5 above.

pseudotyped HIV = test: Pseudotyped HIV assay (HEK293T producer cells, p24 ELISA, HeLa LTR-luciferase); format: cell-based, HIV-1; settings: 500 nM, single dose experiments
Description: Initial experiments were conducted to ascertain if compound 14 (designated as compound 5-5 Z in PCT Publ. […]. After transfection, cells were incubated with compound for 20 hours. Viruses produced in untreated and treated cells were recovered from the media and viral titers were assessed using a p24 ELISA assay as described previously by Miller et al., “The Dimerization Domain of HIV-1 Viral Infectivity Factor Vif is Required to Block Virion Incorporation of APOBEC3G,” Retrovirology 4:81 (2007), which is hereby incorporated by reference in its entirety. The same number of virus from control and compound-treated cells were used to infect a HeLa cell line expressing luciferase under the control of an LTR promoter (Platt et al., “Effects of CCRS and CD4 Cell Surface Concentrations on Infections by Macrophagetropic Isolates of Human Immunodeficiency Virus Type 1,” J. Virol. 72:2855-2864 (1998), which is hereby incorporated by reference in its entirety). Viral infectivity was quantified in microtiter well format based on the luciferase signals. […]
This experiment was repeated using a dose-response study to assess the efficacy of compound 18. […] Actin concentration (as measured by Western blot) was used to correct viral titers for any subtle variation in cell number, and to confirm that the observed effect is specific to virus production and not to off-target effects. […]

| SMILES | toxicity (MTT) [1] | apparent KD [2] | cell membrane penetration / localization (mouse C2C12 myoblasts) | toxicity (MTT) (human fibroblasts) | decrease in viral titer relative to null control (pseudotyped HIV) |
| --- | --- | --- | --- | --- | --- |
| COc1cccc2c1C(=O)c1c(O)c3c(c(O)c1C2=O)C[C@@](O)(C(C)=O)C[C@@H]3O[C@H]1C[C@H](N)[C@H](O)[C@H](C)O1 [daunorubicin] | significant toxicity at all concentrations tested | – | – | – | – |
| CCc1nc2cc3ccccc3cc2cc1C(=O)O [Compound 2, 2-ethylbenzo[g]quinoline-3-carboxylic acid] | – | complete lack of binding | only a modest ability to enter cells; also recorded: not internalized by cells | no toxicity | no effect |
